Experimental data as given in ChEMBL document CHEMBL4382231, “Chemical preparation, biological evaluation and 3D-QSAR of ethoxysulfuron derivatives as novel antifungal agents targeting acetohydroxyacid synthase” (Eur J Med Chem, 2019).

Key:
Candida albicans [1] = assay: Antifungal activity against Candida albicans SC5314 cultured in YNB media after 24 hrs by broth microdilution method; type: functional; settings: SC5314, 24 h
Candida albicans [2] = assay: Antifungal activity against Candida albicans SC5314 cultured in RPMI 1640 media after 24 hrs by broth microdilution method; type: functional; settings: SC5314, 24 h
[3] = Inhibition of Candida albicans AHAS catalytic subunit using pyruvate as substrate measured after 30 mins by colorimetric method

SMILES | MIC (Candida albicans [1]) | MIC (Candida albicans [2]) | Ki [3] | pKi [3]
COc1cc(Cl)nc(NC(=O)[N-]S(=O)(=O)Oc2ccc([N+](=O)[O-])cc2)n1.[Na+] | > 100 µg/mL | > 100 µg/mL | 28000 nM | 4.55
CCOC(=O)c1ccc(OS(=O)(=O)[N-]C(=O)Nc2nc(OC)cc(OC)n2)cc1.[Na+] | > 100 µg/mL | > 100 µg/mL | > 50000 nM | 
CCCOC(=O)c1ccccc1OS(=O)(=O)[N-]C(=O)Nc1nc(C)cc(Cl)n1.[Na+] | > 100 µg/mL | > 100 µg/mL | 35500 nM | 
Cc1cc(Cl)nc(NC(=O)[N-]S(=O)(=O)Oc2ccccc2C(=O)OCCI)n1.[Na+] | > 100 µg/mL | > 100 µg/mL | 2330 nM | 5.64
CCCOC(=O)c1ccccc1OS(=O)(=O)[N-]C(=O)Nc1nc(OC)cc(OC)n1.[Na+] | > 100 µg/mL | > 100 µg/mL | 260 nM | 6.59
COC(=O)c1ccccc1OS(=O)(=O)[N-]C(=O)Nc1nc(Cl)cc(OC)n1.[Na+] | > 100 µg/mL | > 100 µg/mL | 55 nM | 7.26
CCCOC(=O)c1ccccc1OS(=O)(=O)[N-]C(=O)Nc1nc(I)cc(OC)n1.[Na+] | > 100 µg/mL | > 100 µg/mL | 862 nM | 6.06
COc1cc(I)nc(NC(=O)[N-]S(=O)(=O)Oc2ccccc2OCCI)n1.[Na+] | 20 µg/mL | > 100 µg/mL | 637 nM | 6.18
Cc1cc(C)nc(NC(=O)[N-]S(=O)(=O)Oc2ccc([N+](=O)[O-])cc2)n1.[Na+] | > 100 µg/mL | > 100 µg/mL | 5660 nM | 5.24
COC(=O)c1ccccc1OS(=O)(=O)[N-]C(=O)Nc1nc(C)cc(Cl)n1.[Na+] | > 100 µg/mL | > 100 µg/mL | 85.5 nM | 7.06
CCOC(=O)c1ccccc1OS(=O)(=O)[N-]C(=O)Nc1nc(C)cc(OC)n1.[Na+] | 10 µg/mL | 25 µg/mL | 7.1 nM | 8.16
COc1cc(C)nc(NC(=O)[N-]S(=O)(=O)Oc2ccccc2C(=O)OCC(F)(F)F)n1.[Na+] | 20 µg/mL | > 100 µg/mL | 310 nM | 6.51
COc1cc(C)nc(NC(=O)[N-]S(=O)(=O)Oc2ccc([N+](=O)[O-])cc2)n1.[Na+] | > 100 µg/mL | > 100 µg/mL | > 50000 nM | 
COc1cc(I)nc(NC(=O)[N-]S(=O)(=O)Oc2ccccc2OCCCl)n1.[Na+] | 10 µg/mL | 100 µg/mL | 68 nM | 7.16
Cc1cc(C)nc(NC(=O)[N-]S(=O)(=O)Oc2ccccc2OCCI)n1.[Na+] | > 100 µg/mL | > 100 µg/mL | 3570 nM | 5.45
CCOC(=O)c1ccc(OS(=O)(=O)[N-]C(=O)Nc2nc(Cl)cc(OC)n2)cc1.[Na+] | > 100 µg/mL | > 100 µg/mL | 15400 nM | 4.81
COc1cc(C)nc(NC(=O)[N-]S(=O)(=O)Oc2ccccc2C(=O)OCCI)n1.[Na+] | > 100 µg/mL | > 100 µg/mL | 610 nM | 6.21
COc1cc(C)nc(NC(=O)[N-]S(=O)(=O)Oc2ccccc2OCCI)n1.[Na+] | 10 µg/mL | > 100 µg/mL | 91 nM | 7.04
Cc1cc(Cl)nc(NC(=O)[N-]S(=O)(=O)Oc2ccc([N+](=O)[O-])cc2)n1.[Na+] | > 100 µg/mL | > 100 µg/mL | > 50000 nM | 
COc1cc(C)nc(NC(=O)[N-]S(=O)(=O)Oc2ccccc2C(=O)OC(C)C)n1.[Na+] | 80 µg/mL | > 100 µg/mL | 268 nM | 
CCOC(=O)c1cccc(OS(=O)(=O)[N-]C(=O)Nc2nc(C)cc(Cl)n2)c1.[Na+] | > 100 µg/mL | > 100 µg/mL | > 50000 nM | 
COc1cc(Br)nc(NC(=O)[N-]S(=O)(=O)Oc2ccccc2OCCI)n1.[Na+] | > 100 µg/mL | > 100 µg/mL | 478 nM | 6.33
CCCOC(=O)c1ccccc1OS(=O)(=O)[N-]C(=O)Nc1nc(C)cc(OC)n1.[Na+] | > 100 µg/mL | > 100 µg/mL | 1490 nM | 
COc1cc(Cl)nc(NC(=O)[N-]S(=O)(=O)Oc2ccccc2C(=O)Oc2ccccc2)n1.[Na+] | > 100 µg/mL | > 100 µg/mL | 25400 nM | 4.58
CCCOC(=O)c1ccccc1OS(=O)(=O)[N-]C(=O)Nc1nc(Br)cc(OC)n1.[Na+] | > 100 µg/mL | > 100 µg/mL | 758 nM | 6.16
COc1cc(Br)nc(NC(=O)[N-]S(=O)(=O)Oc2ccccc2[N+](=O)[O-])n1.[Na+] | > 100 µg/mL | > 100 µg/mL | 247 nM | 6.6
COc1cc(Br)nc(NC(=O)[N-]S(=O)(=O)Oc2ccccc2C(=O)OC(C)C)n1.[Na+] | > 100 µg/mL | > 100 µg/mL | 1510 nM | 5.82
COc1cc(Cl)nc(NC(=O)[N-]S(=O)(=O)Oc2ccccc2OCCCl)n1.[Na+] | > 100 µg/mL | > 100 µg/mL | 87 nM | 7.06

SMILES | MIC (Candida albicans [1]) | MIC (Candida albicans [2]) | Ki [3] | pKi [3]
CCOC(=O)c1ccc(OS(=O)(=O)[N-]C(=O)Nc2nc(C)cc(Cl)n2)cc1.[Na+] | > 100 µg/mL | > 100 µg/mL | > 50000 nM | 
Cc1cc(C)nc(NC(=O)[N-]S(=O)(=O)Oc2ccccc2C(=O)OCCI)n1.[Na+] | > 100 µg/mL | > 100 µg/mL | 15000 nM | 4.82
CCOC(=O)c1ccccc1OS(=O)(=O)[N-]C(=O)Nc1nc(Br)cc(OC)n1.[Na+] | > 100 µg/mL | > 100 µg/mL | 10.8 nM | 7.96
COc1cc(Br)nc(NC(=O)[N-]S(=O)(=O)Oc2ccccc2OCCCl)n1.[Na+] | > 100 µg/mL | > 100 µg/mL | 69 nM | 7.13
CCCOC(=O)c1ccccc1OS(=O)(=O)[N-]C(=O)Nc1nc(Cl)cc(OC)n1.[Na+] | > 100 µg/mL | > 100 µg/mL | 235 nM | 6.62
COc1cc(OC)nc(NC(=O)[N-]S(=O)(=O)Oc2ccccc2C(=O)Oc2ccccc2)n1.[Na+] | > 100 µg/mL | > 100 µg/mL | 5860 nM | 5.23
COc1cc(I)nc(NC(=O)[N-]S(=O)(=O)Oc2ccccc2[N+](=O)[O-])n1.[Na+] | 40 µg/mL | > 100 µg/mL | 523 nM | 6.28
COc1cc(Cl)nc(NC(=O)[N-]S(=O)(=O)Oc2ccccc2C(=O)OC(C)C)n1.[Na+] | > 100 µg/mL | > 100 µg/mL | 4560 nM | 5.46
COc1cc(OC)nc(NC(=O)[N-]S(=O)(=O)Oc2ccccc2C(=O)OCCI)n1.[Na+] | > 100 µg/mL | > 100 µg/mL | 95 nM | 7.02
Cc1cc(Cl)nc(NC(=O)[N-]S(=O)(=O)Oc2ccccc2C(=O)Oc2ccccc2)n1.[Na+] | > 100 µg/mL | > 100 µg/mL | > 50000 nM | 
Cc1cc(C)nc(NC(=O)[N-]S(=O)(=O)Oc2ccccc2C(=O)OC(C)C)n1.[Na+] | > 100 µg/mL | > 100 µg/mL | 9840 nM | 5
CCOC(=O)c1ccccc1OS(=O)(=O)[N-]C(=O)Nc1nc(C)cc(Cl)n1.[Na+] | > 100 µg/mL | > 100 µg/mL | 37.1 nM | 7.43
COc1cc(Cl)nc(NC(=O)[N-]S(=O)(=O)Oc2ccccc2C(=O)OCC(F)(F)F)n1.[Na+] | > 100 µg/mL | > 100 µg/mL | 265 nM | 6.57
Cc1cc(C)nc(NC(=O)[N-]S(=O)(=O)Oc2ccccc2OCCCl)n1.[Na+] | > 100 µg/mL | > 100 µg/mL | 822 nM | 6.08
COC(=O)c1ccccc1S(=O)(=O)NC(=O)Nc1nccc(C)n1 [MONOSULFURON ESTER] |  |  | 16800 nM | 
CCOC(=O)c1ccccc1OS(=O)(=O)[N-]C(=O)Nc1nc(Cl)cc(OC)n1.[Na+] | 40 µg/mL | > 100 µg/mL | 7.5 nM | 8.12
CCCOC(=O)c1ccccc1OS(=O)(=O)[N-]C(=O)Nc1nc(C)cc(C)n1.[Na+] | > 100 µg/mL | > 100 µg/mL | 2690 nM | 5.57
COc1cc(C)nc(NC(=O)[N-]S(=O)(=O)Oc2ccccc2OCCCl)n1.[Na+] | 10 µg/mL | 25 µg/mL | 78 nM | 7.1
Cc1cc(Cl)nc(NC(=O)[N-]S(=O)(=O)Oc2ccccc2C(=O)OCCCl)n1.[Na+] | > 100 µg/mL | > 100 µg/mL | 761 nM | 6.09
Cc1cc(Cl)nc(NC(=O)[N-]S(=O)(=O)Oc2ccccc2[N+](=O)[O-])n1.[Na+] | 40 µg/mL | > 100 µg/mL | 103 nM | 6.99
COc1cc(Cl)nc(NC(=O)[N-]S(=O)(=O)Oc2ccccc2OCCI)n1.[Na+] | > 100 µg/mL | > 100 µg/mL | 583 nM | 6.23
Cc1cc(Cl)nc(NC(=O)[N-]S(=O)(=O)Oc2ccccc2OCCI)n1.[Na+] | > 100 µg/mL | > 100 µg/mL | 885 nM | 6.05
Cc1cc(Cl)nc(NC(=O)[N-]S(=O)(=O)Oc2ccccc2C(=O)OC(C)C)n1.[Na+] | > 100 µg/mL | > 100 µg/mL | 22900 nM | 4.64
CCOC(=O)c1ccccc1OS(=O)(=O)[N-]C(=O)Nc1nc(C)cc(C)n1.[Na+] | > 100 µg/mL | > 100 µg/mL | 750 nM | 6.13
Cc1cc(C)nc(NC(=O)[N-]S(=O)(=O)Oc2ccccc2C(=O)Oc2ccccc2)n1.[Na+] | > 100 µg/mL | > 100 µg/mL | 25700 nM | 4.6
COc1cc(Br)nc(NC(=O)[N-]S(=O)(=O)Oc2ccccc2C(=O)OCCI)n1.[Na+] | > 100 µg/mL | > 100 µg/mL | 980 nM | 6.01
COc1cc(OC)nc(NC(=O)[N-]S(=O)(=O)Oc2ccccc2C(=O)OC(C)C)n1.[Na+] | 20 µg/mL | > 100 µg/mL | 405 nM | 6.4
